From article PMC6981581, “N-(2-Arylmethylthio-4-Chloro-5-Methylbenzenesulfonyl)amide Derivatives as Potential Antimicrobial Agents—Synthesis and Biological Studies” (International Journal of Molecular Sciences, 2019) come the findings set out here.

≈ marks a conversion by molar mass, not a printed value. Where two headings read alike, the source gives them in different places.

For one assay, the system named is HCT-116 (colon cancer). The assay can be described thus: MTT cell viability assay. In kind it is cell-based. The settings on record: Homo sapiens, 72 h incubation, mean ± SD. As for the experimental part:
(§1) Analysis was performed using the MTT test and 72 h of incubation.
(§2) All chemicals were obtained from Sigma-Aldrich (St. Louis, MO, USA). The MCF-7 and HeLa cell lines were purchased from Cell Lines Services (Eppelheim, Germany), the HCT-116 cell line was purchased from ATCC (ATCC-No: CCL-247). Cells were cultured in Dulbecco’s modified Eagle’s medium (DMEM) supplemented with 10% fetal bovine serum, 2 mM glutamine, 100 units/mL penicillin, and 100 μg/mL streptomycin. Cultures were held in an incubator (Heraceus, HeraCell) in a humidified atmosphere with 5% CO2 at 37 °C.
(§3) Cell viability was evaluated using the MTT (3-(4,5-dimethylthiazol-2-yl)-2,5-diphenyltetrazolium bromide) assay. Stock solutions of the studied compounds were obtained in 100% DMSO. […] Cells at a density of 5 × 10^3 cells/well, seeded in 96-well plates, were treated for 72 h with the tested compounds in the concentration range 1–100 μM (1, 10, 25, 50 and 100 μM). After treatment, cells were incubated for 2 h with MTT (0.5 mg/mL) at 37 °C. Cells were lysed with DMSO and the absorbance of the formazan solution was measured at 550 nm with a plate reader (1420 multilabel counter, Victor, Jügesheim, Germany). Values are expressed as the mean ± SD of at least three independent experiments conducted in triplicate.
(Tetrazolium dyes change colour on reduction, which living cells bring about.)

The subject of another assay is HeLa (cervical cancer). The assay can be described thus: MTT cell viability assay. In kind it is cell-based. The settings on record: Homo sapiens, 72 h incubation, mean ± SD. As for the experimental part:
as §1, §2, §3

The next assay has as its system MCF-7 (breast cancer). Nature of the assay: MTT cell viability assay. In kind it is cell-based. The settings on record: Homo sapiens, MCF7, 72 h incubation, mean ± SD. As for the experimental part: as §1, §2, §3
For a further assay, the system named is MRSA 52 biofilm. The assay can be described thus: Biofilm inhibition assay (crystal violet). Type of assay: cell-based, Staphylococcus aureus. The settings on record: MRSA 52, 4 × MIC. As for the experimental part: (§4) For many decades, S. aureus has been identified as the most common etiologic agent of device related infections, associated with biofilm formation. These infections are hard to cure because the specific structure of biofilm confers resistance to the host immune response and to the action of antibiotics.
(§5) Then, 100 µL bacterial suspension prepared from fresh overnight culture by diluting with TSB to obtain the initial inoculum 2 × 10^6 CFU/mL was added. The plates were incubated for 24 h at 37 °C. After the incubation, the wells were discarded and were gently rinsed three times with PBS to remove planktonic staphylococcal cells. Then, contents of the wells were discarded and the biofilm was fixed with 200 µL methanol for 20 min and dried at room temperature for 30 min. The biofilm was stained by adding 200 µL 1.8% crystal violet solution for 15 min. After staining, the plates were rinsed with water and 200 µL bleaching solution (30% ethanol, 30% glacial acetic acid, 40% water) added for 15 min to dissolve the remaining crystal violet. A microplater reader was used to measure the absorbance of the adherent biofilm at 570 nm (OD570). […] The negative control included only the growth medium.

Another assay relates to MSSA 59 biofilm. Nature of the assay: Biofilm inhibition assay (crystal violet). Type of assay: cell-based, Staphylococcus aureus. The following applies: MSSA 59, 4 × MIC. As for the experimental part: as §4, §5
For the next assay, the system named is MSSA 58 biofilm. The assay can be described thus: Biofilm inhibition assay (crystal violet). Type of assay: cell-based, Staphylococcus aureus. As for the experimental part: as §4, §5
The next assay relates to MRSA 51 biofilm. The assay can be described thus: Biofilm inhibition assay (crystal violet). In kind it is cell-based, Staphylococcus aureus. The settings on record: MRSA 51, 4 × MIC. As for the experimental part:
as §4, §5

The next assay deals with S.aureus 56 (MSSA). The assay can be described thus: Broth dilution MIC/MBC, clinical MSSA isolate. In kind it is cell-based. The following applies: Staphylococcus aureus, clinical MSSA S.aureus 56. The source says: (§6) […]. Both MRSA and MSSA strains were derived from various human infections.
(§7) […]. Five methicillin-resistant S. aureus strains were isolated from nose (n = 1), bronchoalveolar lavage (n = 1), sputum (n = 1), wound (n = 1), and blood (n = 1); five methicillin-susceptible S. aureus strains were isolated from throat (n = 1), bronchoalveolar lavage (n = 1), sputum (n = 1), abscess (n = 1), and blood (n = 1).
(§8) The identity of S. aureus isolates was confirmed with conventional methods and with Pastorex Staph-Plus latex agglutination kit (Bio-Rad, Marnes-la-Coquette, France) and verified applying the polymerase chain reaction (PCR) of S. aureus-specific region of the thermonuclease gene, nuc. Resistance to methicillin was first verified using cefoxitin disk (30 µg), and then, identified based on the presence of mecA gene. S. aureus ATCC®25923 (methicillin-susceptible) and S. aureus ATCC®43300 (MDR) were applied as the reference strains. Both the reference and clinical strains were stored at −80 °C, in Tryptic Soy Broth (TSB, Becton-Dickinson, Franklin Lakes, NJ, USA) supplemented with 15% glycerol.
(§9) A broth dilution method was used to determine minimal inhibitory concentration (MIC) for tested compounds as recommended by Clinical Laboratory Standards Institute (CLSI) guidelines. Investigated compounds were diluted in Mueller Hinton Broth 2 (Sigma-Aldrich Co., St. Louis, MO, USA) in polypropylene 96-well plates and initial inoculum 5 × 10^5 cfu/mL were incubated at 37 °C for 18 h. MIC was taken as the lowest drug concentration at which an observable growth was inhibited. […] The loopful (10 µL) of the tested sample was transferred to Tryptic Soy Agar (TSA, Becton-Dickinson, Franklin Lakes, NJ, USA) and incubated at 37 °C for 48 h. […] Drug Solutions were made fresh on the day of the assay. All experiments were performed in triplicate.
In general terms: In broth dilution the organism is exposed to a series of concentrations in liquid medium.

Another assay concerns S.aureus 58 (MSSA). The assay can be described thus: Broth dilution MIC/MBC, clinical MSSA isolate. In kind it is cell-based. The settings on record: Staphylococcus aureus, clinical MSSA S.aureus 58.
Text: as §6, §7, §8, §9

The test system of another assay is S.aureus 55 (MSSA). Nature of the assay: Broth dilution MIC/MBC, clinical MSSA isolate. The following applies: Staphylococcus aureus, clinical MSSA S.aureus 55. Type of assay: cell-based.
Text: as §6, §7, §8, §9

A further assay has as its system S.aureus 59 (MSSA). Nature of the assay: Broth dilution MIC/MBC, clinical MSSA isolate. Type of assay: cell-based. The following applies: Staphylococcus aureus, clinical MSSA S.aureus 59.
Text: as §6, §7, §8, §9

Assay [1] deals with Gram-positive reference strains. Nature of the assay: Broth dilution MIC/MBC, summary over Gram-positive reference strains. Type of assay: cell-based. The settings on record: summary over the Gram-positive reference strains (Table 1). As to the method: […]. The tests were carried out using a serial dilution method, allowing the determination of MIC (minimal concentration inhibiting bacterial growth), MBC (minimal bactericidal concentration), and MFC (minimal fungicidal concentration) values.
Antimicrobial activity was tested using the following reference strains: Staphylococcus aureus ATCC 6538 (MSSA), Staphylococcus aureus ATCC 43300 (MRSA), Staphylococcus epidermidis PCM 2118, Escherichia coli ATCC 11229, Pseudomonas aeruginosa ATCC 15442, Proteus vulgaris NCTC 4635, Enterococcus faecalis ATCC 11420, and Candida albicans ATCC 10231.
as §9

In general, IC50 refers to the midpoint of a concentration-inhibition curve. The low end stands for higher potency, the high end for lower potency. As a reminder, the MBC is the lowest tested concentration that kills the bacteria rather than only halting them. The MIC is the smallest concentration in the dilution series that meets the test's criterion for growth inhibition. Take `Cc1cc(S(=O)(=O)NC(=O)CCC2CCCCC2)c(SCc2cccc(C(F)(F)F)c2)cc1Cl` [Compound 10, N-[4-Chloro-5-methyl-2-(3-trifluoromethylbenzylthio)benzenesulfonyl]-3-cyclohexylpropanamide]: the results for the 50% inhibitory concentration (IC50) with HCT-116 (colon cancer), with HeLa (cervical cancer) and with MCF-7 (breast cancer) were 78 ± 3 µM, 94 ± 3 µM and 81 ± 3 µM, respectively. Further, the “inhibition of biofilm formation” value is on record as 88–89% in the assay with MRSA 52 biofilm; 91% with MSSA 59 biofilm; “about 91%” in the assay on MSSA 58 biofilm (MSSA 58, concentration equal to the MIC); 67% with MSSA 58 biofilm (MSSA 58, ½ MIC (2 μg/mL)); 88–89% in the assay on MRSA 51 biofilm. Also, the MBC in the assay on S.aureus 56 (MSSA) (read-out: MBC) was more than 128 µg/mL; in the assay on S.aureus 58 (MSSA) (read-out: MBC) it was more than 128 µg/mL; with S.aureus 55 (MSSA) (read-out: MBC), more than 128 µg/mL; in the assay with S.aureus 59 (MSSA) (read-out: MBC), more than 128 µg/mL; in assay [1], 8 to 64 µg/mL; in [1] (read-out: MBC) it was 8 to 64 µg/mL (≈ 15 to 120 µM). Also, the MIC was 4 µg/mL (≈ 7.49 µM) in the assay on S.aureus 56 (MSSA) (read-out: MIC); 4 µg/mL (≈ 7.49 µM) in the assay with S.aureus 58 (MSSA) (read-out: MIC); 4 µg/mL (≈ 7.49 µM) in the assay with S.aureus 55 (MSSA) (read-out: MIC); 4 µg/mL (≈ 7.49 µM) in the assay with S.aureus 59 (MSSA) (read-out: MIC); 8 µg/mL (≈ 15 µM) in assay [1]; 8 µg/mL (≈ 15 µM) in [1] (read-out: MIC).
